Laboratory results from patent publication US20220081412A1, “QUINOLINYL-PYRAZINE-CARBOXAMIDE COMPOUNDS AND USES THEREOF” (The Regents of the University of Michigan, priority 2018, published 2022).

Test system: NCI60 cell lines
Test: NCI60 cell line panel
Format: cell-based, human
Protocol: The Developmental Therapeutics Program (DTP) of NCI has evaluated more than 100,000 pure compounds and more than 34,000 crude extracts against the panel of human tumor cell lines. The resultant data are analyzed using a program called COMPARE, that rank the entire database of tested compounds in the order of the similarity of the responses. […] Thus, the NCI60 databases is highly useful to the cancer research community. Further experiments were conducted that tested some of the active compounds in a panel of NCI60 cell line to relate our compounds with some known inhibitors to have an idea of possible mechanism of action.
In order to understand the selectivity of these compounds in different cancer types, some of them were tested against a panel of 60 cell lines (Table XXXIX).

## O=C(Nc1cc(F)cc2cccnc12)c1cnc(N2CCNCC2)cn1 [J44, N-(6-fluoroquinolin-8-yl)-5-(piperazin-1-yl)pyrazine-2-carboxamide]
Breast Cancer, BT-549
  GIPRCNT: % Growth inhibition: 82.22%
Breast Cancer, HS 578T
  GIPRCNT: % Growth inhibition: 71.77%
Breast Cancer, MCF7
  GIPRCNT: % Growth inhibition: 75.22%
Breast Cancer, MDA-MB-231/ATCC
  GIPRCNT: % Growth inhibition: 10.16%
Breast Cancer, MDA-MB-468
  GIPRCNT: % Growth inhibition: −5.124%
Breast Cancer, T-47D
  GIPRCNT: % Growth inhibition: 18.05%
CNS Cancer, SF-268
  GIPRCNT: % Growth inhibition: 77.45%
CNS Cancer, SF-295
  GIPRCNT: % Growth inhibition: 89.3%
CNS Cancer, SF-539
  GIPRCNT: % Growth inhibition: 85.5%
CNS Cancer, SNB-19
  GIPRCNT: % Growth inhibition: 87.74%
CNS Cancer, SNB-75
  GIPRCNT: % Growth inhibition: 82.71%
CNS Cancer, U251
  GIPRCNT: % Growth inhibition: 63.6%
Colon Cancer, COLO 205
  GIPRCNT: % Growth inhibition: 13.9%
Colon Cancer, HCC-2998
  GIPRCNT: % Growth inhibition: 85.58%
Colon Cancer, HCT-15
  GIPRCNT: % Growth inhibition: 40.52%
Colon Cancer, HCT-116
  GIPRCNT: % Growth inhibition: 11%
Colon Cancer, HT29
  GIPRCNT: % Growth inhibition: 36.78%
Colon Cancer, KM12
  GIPRCNT: % Growth inhibition: 81.24%
Colon Cancer, SW-620
  GIPRCNT: % Growth inhibition: 40.94%
Leukemia, CCRF-CEM
  GIPRCNT: % Growth inhibition: 26.31%
Leukemia, HL-60(TB)
  GIPRCNT: % Growth inhibition: 77.07%
Leukemia, K-562
  GIPRCNT: % Growth inhibition: 19.84%
Leukemia, MOLT-4
  GIPRCNT: % Growth inhibition: 24.48%
Leukemia, RPMI-8226
  GIPRCNT: % Growth inhibition: 93.13%
Leukemia, SR
  GIPRCNT: % Growth inhibition: 29.46%
Melanoma, LOX IMVI
  GIPRCNT: % Growth inhibition: 65.76%
Melanoma, M14
  GIPRCNT: % Growth inhibition: 86.06%
Melanoma, MALME-3M
  GIPRCNT: % Growth inhibition: 59.5595%
Melanoma, MDA-MB-435
  GIPRCNT: % Growth inhibition: 77.28%
Melanoma, SK-MEL-2
  GIPRCNT: % Growth inhibition: 104.1313%
Melanoma, SK-MEL-5
  GIPRCNT: % Growth inhibition: 97.38%
Melanoma, UACC-62
  GIPRCNT: % Growth inhibition: 88.004%
Melanoma, UACC-257
  GIPRCNT: % Growth inhibition: 91.12%
Non-Small Cell Lung Cancer, A549/ATCC
  GIPRCNT: % Growth inhibition: 88.1%
Non-Small Cell Lung Cancer, EKVX
  GIPRCNT: % Growth inhibition: 82.71%
Non-Small Cell Lung Cancer, HOP-62
  GIPRCNT: % Growth inhibition: 85.24%
Non-Small Cell Lung Cancer, HOP-92
  GIPRCNT: % Growth inhibition: 49.09%
Non-Small Cell Lung Cancer, NCI-H23
  GIPRCNT: % Growth inhibition: 83.43%
Non-Small Cell Lung Cancer, NCI-H226
  GIPRCNT: % Growth inhibition: 100.3613%
Non-Small Cell Lung Cancer, NCI-H322M
  GIPRCNT: % Growth inhibition: 69.29%
Non-Small Cell Lung Cancer, NCI-H460
  GIPRCNT: % Growth inhibition: 80.62%
Non-Small Cell Lung Cancer, NCI-H522
  GIPRCNT: % Growth inhibition: 54.48%
Ovarian Cancer, IGROV1
  GIPRCNT: % Growth inhibition: 100.6006%
Ovarian Cancer, NCI/ADR-RES
  GIPRCNT: % Growth inhibition: 72.41%
Ovarian Cancer, OVCAR-3
  GIPRCNT: % Growth inhibition: 43.52%
Ovarian Cancer, OVCAR-4
  GIPRCNT: % Growth inhibition: 6.04%
Ovarian Cancer, OVCAR-5
  GIPRCNT: % Growth inhibition: 11.16%
Ovarian Cancer, OVCAR-8
  GIPRCNT: % Growth inhibition: 83.3637%
Ovarian Cancer, SK-OV-3
  GIPRCNT: % Growth inhibition: 87.6273%
Prostate Cancer, DU-145
  GIPRCNT: % Growth inhibition: 63.01%
Prostate Cancer, PC-3
  GIPRCNT: % Growth inhibition: 29.0295%
Renal Cancer, 786-0
  GIPRCNT: % Growth inhibition: 100.1067%
Renal Cancer, A498
  GIPRCNT: % Growth inhibition: 89.1%
Renal Cancer, ACHN
  GIPRCNT: % Growth inhibition: 88.67%
Renal Cancer, CAKI-1
  GIPRCNT: % Growth inhibition: 28.3672%
Renal Cancer, RXF 393
  GIPRCNT: % Growth inhibition: 52.45%
Renal Cancer, SN12C
  GIPRCNT: % Growth inhibition: 54.07%
Renal Cancer, TK-10
  GIPRCNT: % Growth inhibition: 74.98%
Renal Cancer, UO-31
  GIPRCNT: % Growth inhibition: 66.57%
